The term IC50 denotes the concentration at which inhibition is half-maximal.

The record followed here is patent US8389539B2, “Azacyclic derivatives” (Hoffman-La Roche Inc., priority 2009, dated 2013).

This test addresses T1, human HSL (Homo sapiens, UniProt Q05469).
T1 construct: overlapping PCR to generate a full length human HSL ORF with a 3′-His6 tag; His6 (C); made in house; host or cells: High 5 insect cells (baculovirus, pFast-BAC)
T1 sequence (Q05469 1-1076): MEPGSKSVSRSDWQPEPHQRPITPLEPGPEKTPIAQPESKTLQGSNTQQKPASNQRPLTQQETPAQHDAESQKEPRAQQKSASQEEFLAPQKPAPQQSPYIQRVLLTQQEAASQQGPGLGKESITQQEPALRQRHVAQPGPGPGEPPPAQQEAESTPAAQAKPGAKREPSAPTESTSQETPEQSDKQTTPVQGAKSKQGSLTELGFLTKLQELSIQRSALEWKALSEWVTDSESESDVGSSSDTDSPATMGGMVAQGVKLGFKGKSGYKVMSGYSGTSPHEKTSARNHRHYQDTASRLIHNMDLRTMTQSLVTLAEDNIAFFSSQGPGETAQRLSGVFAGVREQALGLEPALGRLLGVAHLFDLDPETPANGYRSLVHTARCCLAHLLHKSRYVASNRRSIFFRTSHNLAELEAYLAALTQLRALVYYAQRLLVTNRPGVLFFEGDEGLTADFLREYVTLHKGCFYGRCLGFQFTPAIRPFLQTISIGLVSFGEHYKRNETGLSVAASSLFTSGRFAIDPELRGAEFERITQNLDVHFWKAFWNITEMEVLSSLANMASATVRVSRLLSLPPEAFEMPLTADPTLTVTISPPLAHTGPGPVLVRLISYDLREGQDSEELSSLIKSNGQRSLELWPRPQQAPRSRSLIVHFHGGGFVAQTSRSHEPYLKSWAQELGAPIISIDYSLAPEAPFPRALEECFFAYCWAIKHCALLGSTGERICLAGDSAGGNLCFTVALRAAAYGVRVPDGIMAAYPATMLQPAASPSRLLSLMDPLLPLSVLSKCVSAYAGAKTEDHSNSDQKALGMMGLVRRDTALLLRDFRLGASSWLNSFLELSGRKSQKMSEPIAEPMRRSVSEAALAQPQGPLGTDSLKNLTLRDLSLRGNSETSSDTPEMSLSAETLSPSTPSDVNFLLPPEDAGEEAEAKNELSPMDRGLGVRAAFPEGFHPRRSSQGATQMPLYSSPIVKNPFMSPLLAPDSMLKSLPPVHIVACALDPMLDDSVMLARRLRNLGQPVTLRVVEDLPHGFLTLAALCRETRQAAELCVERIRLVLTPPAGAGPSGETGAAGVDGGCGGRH
Description: Human Hormone-Sensitive Lipase (HSL) enzyme inhibition assay (colorimetric, DMPT substrate). The note with it: human full length HSL-His6, 2,3-dimercapto-1-propanol tributyrate substrate, 37° C. 20 minutes, absorbance at 405 nm; read-out: HSL hum IC50. Type of test: biochemical. Here is the method:
1) Cloning: cDNA was prepared from commercial human brain polyA+ RNA and used as a template in overlapping PCR to generate a full length human HSL ORF with a 3′-His6 tag. This full length insert was cloned into the pFast-BAC vector and the DNA-sequence of several single clones was verified. DNA from a correct full length clone with the 3′His6 tag was used to transform the E. coli strain DH10BAC. Resulting bacmid DNA was used to generate a titered baculovirus stock for protein generation.
Cells were thawed. […] was done at 3×30 sec., Lubrol PX was added to 0.2% final concentration followed by stirring for 15 min. at 4° C. and centrifugation at 25 k×g, 60 min., 4° C. […] Supernatant was removed, the resin washed in the centrifuge vessel using 5 volumes of Base Buffer containing 0.2% Lubrol PX. Centrifugation was done again, then the supernatant discarded. The resin was poured onto a 0.8 μm membrane in a disposable filter unit (Nalge 450-0080), and washed with 5 volumes of Base Buffer containing 0.2% Lubrol PX. It was then washed with 30 volumes of Base Buffer containing 60 mM imidazole pH 7.5 at 4° C. The protein was eluated with 5 volumes of 25 mM Tris-Cl, 300 mM NaCl, 200 mM imidazole, 10 mM 2-mercaptoethanol, pH 7.5 at 4° C. by tumbling resin with buffer end-over-end, 30 min., 4° C. The resin was captured on a 0.2 μm membrane disposable filter unit (Millipore SCGP U02 RE) and the eluate collected in the reservoir. The eluate was concentrated using a 30 k MWCO centrifugal filter device (Sartorius Vivascience Vivacell 100, VC1022), to 20 ml. It was then dialyzed overnight at 4° C., two times against 2 L of 10% glycerol, 25 mM Tris-Cl, 300 mM NaCl, 0.2 mM EDTA, 0.2 mM DTT, pH 7.5 at 4° C. The protein was filtered using a 0.22 μm disposable filter unit (Millipore SCGP00525). The protein concentration was calculated from absorbance at 280 nm, using 280=0.67 cm-1 mg-1. […] The protein was stored at −80° C.
Human Hormone-Sensitive Lipase (HSL) Enzyme Inhibition Assay:
HSL enzyme activity was measured by a colorimetric assay using 2,3-dimercapto-1-propanol tributyrate (Aldrich, St. Louis, Mo.) as a substrate. Typically, 1.5 mM 2,3-dimercapto-1-propanol tributyrate (DMPT) in 100 mM MOPS, pH 7.2, 0.2 mg/ml fatty acid-free BSA was prepared by sonication at 4° C. to homogenous suspension. Test compounds (2 mM stock in DMSO) were diluted 3 fold in series in DMSO. Compound solutions were diluted 24 fold in 1.5 mM DMPT containing solution and 18 ul per well was added to 384-well microplates (Corning Costar). Twelve microliters per well of human HSL (15 ug/ml) was added and the reaction mixture was incubated at 37° C. for 20 minutes. Six microliters of 12 mM dithio-bis-(2-nitrobenzoic acid) (DTNB) in DMSO plus 1.2% SDS and 0.6% Triton X-100 were added and the mixture was incubated at room temperature for 15 minutes. Product production was monitored by reading absorbance at 405 nm on an Envision Reader (PerkinElmer Life and Analytical Sciences, Shelton, Conn.).

With `O=C1N(c2ccc(CC(F)(F)F)cc2)CCC12CCN(CC(O)c1ccc(Cl)cc1Cl)CC2` (stereo not shown) [Example 46, 8-[2-(2,4-Dichloro-phenyl)-2-hydroxy-ethyl]-2-[4-(2,2,2-trifluoro-ethyl)-phenyl]-2,8-diaza-spiro[4.5]decan-1-one], the IC50 is 19 nM.
With `O=C1N(c2ccc(OCC(F)(F)F)cc2)CCC12CCN(CC(O)c1c(F)cccc1Cl)CC2` (stereo not shown) [Example 47, 8-[2-(2-Chloro-6-fluoro-phenyl)-2-hydroxy-ethyl]-2-[4-(2,2,2-trifluoro-ethoxy)-phenyl]-2,8-diaza-spiro[4.5]decan-1-one] the figure was 35 nM.
For `C[C@@H](Oc1ccc(N2CCC3(CCN(CC(O)c4c(F)cccc4Cl)CC3)C2=O)cc1)C(F)(F)F` (stereo partly drawn) [Example 48, 8-[2-(2-Chloro-6-fluoro-phenyl)-2-hydroxy-ethyl]-2-[4-((R)-2,2,2-trifluoro-1-methyl-ethoxy)-phenyl]-2,8-diaza-spiro[4.5]decan-1-one] the value was 23 nM; for `C[C@@H](Oc1ccc(N2CCC3(CCN(CC(O)c4c(F)cccc4Cl)CC3)C2=O)cn1)C(F)(F)F` (stereo partly drawn) [Example 49, 8-[2-(2-Chloro-6-fluoro-phenyl)-2-hydroxy-ethyl]-2-[6-((R)-2,2,2-trifluoro-1-methyl-ethoxy)-pyridin-3-yl]-2,8-diaza-spiro[4.5]decan-1-one], 42 nM; for `O=C1N(c2ccc(CC(F)(F)F)cc2)CCC12CCN(CC(O)c1c(F)cccc1Cl)CC2` (stereo not shown) [Example 50, 8-[2-(2-Chloro-6-fluoro-phenyl)-2-hydroxy-ethyl]-2-[4-(2,2,2-trifluoro-ethyl)-phenyl]-2,8-diaza-spiro[4.5]decan-1-one], 18 nM.
For `C[C@@H](Oc1ccc(N2CCC3(CCN(CC(O)c4ccc(Cl)cc4Cl)CC3)C2=O)cc1)C(F)(F)F` (stereo partly drawn) [Example 51, 8-[2-(2,4-Dichloro-phenyl)-2-hydroxy-ethyl]-2-[4-((R)-2,2,2-trifluoro-1-methyl-ethoxy)-phenyl]-2,8-diaza-spiro[4.5]decan-1-one] the value was 22 nM; for `C[C@H](Oc1ccc(N2CCC3(CCN(CC(O)c4ccc(Cl)cc4Cl)CC3)C2=O)cc1)C(F)(F)F` (stereo partly drawn) [Example 52, 8-[2-(2,4-Dichloro-phenyl)-2-hydroxy-ethyl]-2-[4-((S)-2,2,2-trifluoro-1-methyl-ethoxy)-phenyl]-2,8-diaza-spiro[4.5]decan-1-one], 20 nM.
Consider `C[C@H](Oc1ccc(N2CCC3(CCN(CC(O)c4ccc(Cl)cc4Cl)CC3)C2=O)cn1)C(F)(F)F` (stereo partly drawn) [Example 53, 8-[2-(2,4-Dichloro-phenyl)-2-hydroxy-ethyl]-2-[6-((S)-2,2,2-trifluoro-1-methyl-ethoxy)-pyridin-3-yl]-2,8-diaza-spiro[4.5]decan-1-one], for which the IC50 is 43 nM.
For `C[C@H](Oc1ccc(N2CCC3(CCN(CC(O)c4c(F)cccc4Cl)CC3)C2=O)cc1)C(F)(F)F` (stereo partly drawn) [Example 54, 8-[2-(2-Chloro-6-fluoro-phenyl)-2-hydroxy-ethyl]-2-[4-((S)-2,2,2-trifluoro-1-methyl-ethoxy)-phenyl]-2,8-diaza-spiro[4.5]decan-1-one] the value was 29 nM.
Turning to `C[C@H](Oc1ccc(N2CCC3(CCN(CC(O)c4c(F)cccc4Cl)CC3)C2=O)cn1)C(F)(F)F` (stereo partly drawn) [Example 55, 8-[2-(2-Chloro-6-fluoro-phenyl)-2-hydroxy-ethyl]-2-[6-((S)-2,2,2-trifluoro-1-methyl-ethoxy)-pyridin-3-yl]-2,8-diaza-spiro[4.5]decan-1-one], the IC50 stood at 38 nM.
